Several values for one entry are separate records, joined by “and”; a condition that tells them apart may be missing. Equal entries are not always repeated.
Assays:
HT-29-transplanted tumor = test: Biodistribution of [^111In]ITDA1 in HT-29 cancer-bearing mouse; assay type: in vivo; conditions: for Accumulation of radioactivity: Blood / Accumulation of radioactivity: Brain / Accumulation of radioactivity: Heart / Accumulation of radioactivity: Intestines / Accumulation of radioactivity: Kidney / Accumulation of radioactivity: Liver / Accumulation of radioactivity: Lungs / Accumulation of radioactivity: Muscle / Accumulation of radioactivity: Pancreas / Accumulation of radioactivity: Spleen / Accumulation of radioactivity: Stomach / Accumulation of radioactivity: Tumor (HT-29) / Tumor/blood / Tumor/muscle: HT-29 mouse
Procedure: HT-29 cells (5×10^6 cells/mouse) were subcutaneously inoculated into the left shoulder of each of 5-week old male BALB/c nude mice (purchased from Shimizu Laboratory Supplies Co., Ltd., the same applies to the following Examples). A saline solution (100 μL) in which [^111In]ITDA1 (37 kBq) had been dissolved was administered to each of the HT-29 cancer-bearing mice (n=5) via the tail vein. The mice were slaughtered after the lapse of 1, 4, 8, and 24 hours from the administration, and the blood, spleen, pancreas, stomach, intestines, kidney, liver, heart, lungs, brain, HT-29-transplanted tumor, and muscle were recovered. The weight of each organ was measured, and the amount of radioactivity in each organ was measured by using a gamma counter. The accumulation of radioactivity in each organ was expressed by % ID (injected dose)/g obtained by dividing the ratio of the amount of radioactivity of each organ to the administered amount of radioactivity by the organ weight.

[1] = test system: HT-29 tumor and MDA-MB-231 tumor; test: CA-IX selectivity of [^111In]ITDA1 in cancer-bearing mouse (HT-29 vs MDA-MB-231); assay type: in vivo; conditions: 24 hours from administration
Procedure: HT-29 cells (5×10^6 cells/mouse) and MDA-MB-231 cells (5×10^6 cells/mouse) were subcutaneously inoculated into the left shoulders of 5-week old male BALB/c nude mice, respectively. A saline solution (100 μL) in which [^111In]ITDA1 (37 kBq) had been dissolved was administered to each of the cancer-bearing mice (n=5) via the tail vein. The mice were slaughtered after the lapse of 24 hours from the administration, and the blood, transplanted tumor, and muscle were recovered from each of the mice. The weight of each organ was measured, and the amount of radioactivity in each organ was measured by using a gamma counter. The accumulation of radioactivity in each organ was expressed by % ID (injected dose)/g obtained by dividing the ratio of the amount of radioactivity of each organ to the administered amount of radioactivity by the organ weight.

SMILES: NS(=O)(=O)c1nn2cc(-c3ccc(NC(=O)CN4CCN(CC(=O)O)CCN(CC(=O)O)CCN(CC(=O)O)CC4)cc3)nc2s1.[111In+3] [[^111In]ITDA1, [^111In]indium(III)2,2′,2″-(10-(2-oxo-2-((4-(2-sulfamoylimidazo[2,1-b][1,3,4]thiadiazol-6-yl)phenyl)amino)ethyl)-1,4,7,10-tetraazacyclododecan-1,4,7-triyl) triacetic acid]
- Accumulation of radioactivity: Blood (HT-29-transplanted tumor; 1 h after administration): 0.27 ± 0.03 % ID/tissue weight (g)
- Accumulation of radioactivity: Brain (HT-29-transplanted tumor; 1 h after administration): 0.30 ± 0.02 % ID/tissue weight (g)
- Accumulation of radioactivity: Heart (HT-29-transplanted tumor; 1 h after administration): 7.58 ± 1.20 % ID/tissue weight (g)
- Accumulation of radioactivity: Intestines (HT-29-transplanted tumor; 1 h after administration): 10.86 ± 1.27 % ID/tissue weight (g)
- Accumulation of radioactivity: Kidney (HT-29-transplanted tumor; 1 h after administration): 111.20 ± 12.39 % ID/tissue weight (g)
- Accumulation of radioactivity: Liver (HT-29-transplanted tumor; 1 h after administration): 3.59 ± 0.98 % ID/tissue weight (g)
- Accumulation of radioactivity: Lungs (HT-29-transplanted tumor; 1 h after administration): 13.49 ± 5.52 % ID/tissue weight (g)
- Accumulation of radioactivity: Muscle (HT-29-transplanted tumor; 1 h after administration): 5.44 ± 1.59 % ID/tissue weight (g)
- Accumulation of radioactivity: Pancreas (HT-29-transplanted tumor; 1 h after administration): 31.32 ± 5.29 % ID/tissue weight (g)
- Accumulation of radioactivity: Spleen (HT-29-transplanted tumor; 1 h after administration): 0.33 ± 0.10 % ID/tissue weight (g)
- Accumulation of radioactivity: Stomach (HT-29-transplanted tumor; 1 h after administration): 2.59 ± 0.69 % ID
- Accumulation of radioactivity: Tumor (HT-29) (HT-29-transplanted tumor; 1 h after administration): 3.81 ± 0.79 % ID/tissue weight (g)
- Tumor/blood (HT-29-transplanted tumor; 1 h after administration): 14.41 ± 3.35
- Tumor/muscle (HT-29-transplanted tumor; 1 h after administration): 0.74 ± 0.25
- Accumulation of radioactivity: Blood (HT-29-transplanted tumor; 4 h after administration): 0.25 ± 0.18 % ID/tissue weight (g)
- Accumulation of radioactivity: Brain (HT-29-transplanted tumor; 4 h after administration): 0.35 ± 0.05 % ID/tissue weight (g)
- Accumulation of radioactivity: Heart (HT-29-transplanted tumor; 4 h after administration): 3.49 ± 0.74 % ID/tissue weight (g)
- Accumulation of radioactivity: Intestines (HT-29-transplanted tumor; 4 h after administration): 14.20 ± 1.28 % ID/tissue weight (g)
- Accumulation of radioactivity: Kidney (HT-29-transplanted tumor; 4 h after administration): 115.12 ± 8.70 % ID/tissue weight (g)
- Accumulation of radioactivity: Liver (HT-29-transplanted tumor; 4 h after administration): 3.86 ± 0.92 % ID/tissue weight (g)
- Accumulation of radioactivity: Lungs (HT-29-transplanted tumor; 4 h after administration): 5.09 ± 1.69 % ID/tissue weight (g)
- Accumulation of radioactivity: Muscle (HT-29-transplanted tumor; 4 h after administration): 2.69 ± 0.76 % ID/tissue weight (g)
- Accumulation of radioactivity: Pancreas (HT-29-transplanted tumor; 4 h after administration): 18.81 ± 2.04 % ID/tissue weight (g)
- Accumulation of radioactivity: Spleen (HT-29-transplanted tumor; 4 h after administration): 0.31 ± 0.12 % ID/tissue weight (g)
- Accumulation of radioactivity: Stomach (HT-29-transplanted tumor; 4 h after administration): 5.22 ± 0.79 % ID
- Accumulation of radioactivity: Tumor (HT-29) (HT-29-transplanted tumor; 4 h after administration): 4.20 ± 0.68 % ID/tissue weight (g)
- Tumor/blood (HT-29-transplanted tumor; 4 h after administration): 21.70 ± 8.65
- Tumor/muscle (HT-29-transplanted tumor; 4 h after administration): 1.62 ± 0.33
- Accumulation of radioactivity: Blood (HT-29-transplanted tumor; 8 h after administration): 0.18 ± 0.02 % ID/tissue weight (g)
- Accumulation of radioactivity: Brain (HT-29-transplanted tumor; 8 h after administration): 0.41 ± 0.05 % ID/tissue weight (g)
- Accumulation of radioactivity: Heart (HT-29-transplanted tumor; 8 h after administration): 2.16 ± 0.31 % ID/tissue weight (g)
- Accumulation of radioactivity: Intestines (HT-29-transplanted tumor; 8 h after administration): 14.99 ± 1.27 % ID/tissue weight (g)
- Accumulation of radioactivity: Kidney (HT-29-transplanted tumor; 8 h after administration): 83.81 ± 7.88 % ID/tissue weight (g)
- Accumulation of radioactivity: Liver (HT-29-transplanted tumor; 8 h after administration): 3.15 ± 0.78 % ID/tissue weight (g)
- Accumulation of radioactivity: Lungs (HT-29-transplanted tumor; 8 h after administration): 3.54 ± 1.19 % ID/tissue weight (g)
- Accumulation of radioactivity: Muscle (HT-29-transplanted tumor; 8 h after administration): 1.75 ± 0.37 % ID/tissue weight (g)
- Accumulation of radioactivity: Pancreas (HT-29-transplanted tumor; 8 h after administration): 9.80 ± 2.34 % ID/tissue weight (g)
- Accumulation of radioactivity: Spleen (HT-29-transplanted tumor; 8 h after administration): 0.21 ± 0.05 % ID/tissue weight (g)
- Accumulation of radioactivity: Stomach (HT-29-transplanted tumor; 8 h after administration): 6.09 ± 0.82 % ID
- Accumulation of radioactivity: Tumor (HT-29) (HT-29-transplanted tumor; 8 h after administration): 5.16 ± 0.62 % ID/tissue weight (g)
- Tumor/blood (HT-29-transplanted tumor; 8 h after administration): 29.14 ± 5.15
- Tumor/muscle (HT-29-transplanted tumor; 8 h after administration): 3.03 ± 0.66
- Accumulation of radioactivity: Blood (HT-29-transplanted tumor; 24 h after administration): 0.16 ± 0.02 % ID/tissue weight (g)
- Accumulation of radioactivity: Brain (HT-29-transplanted tumor; 24 h after administration): 0.48 ± 0.03 % ID/tissue weight (g)
- Accumulation of radioactivity: Heart (HT-29-transplanted tumor; 24 h after administration): 1.56 ± 0.30 % ID/tissue weight (g)
- Accumulation of radioactivity: Intestines (HT-29-transplanted tumor; 24 h after administration): 17.99 ± 1.59 % ID/tissue weight (g)
- Accumulation of radioactivity: Kidney (HT-29-transplanted tumor; 24 h after administration): 65.13 ± 7.13 % ID/tissue weight (g)
- Accumulation of radioactivity: Liver (HT-29-transplanted tumor; 24 h after administration): 2.21 ± 0.34 % ID/tissue weight (g)
- Accumulation of radioactivity: Lungs (HT-29-transplanted tumor; 24 h after administration): 2.06 ± 0.66 % ID/tissue weight (g)
- Accumulation of radioactivity: Muscle (HT-29-transplanted tumor; 24 h after administration): 1.43 ± 0.53 % ID/tissue weight (g)
- Accumulation of radioactivity: Pancreas (HT-29-transplanted tumor; 24 h after administration): 8.13 ± 0.91 % ID/tissue weight (g)
- Accumulation of radioactivity: Spleen (HT-29-transplanted tumor; 24 h after administration): 0.42 ± 0.18 % ID/tissue weight (g)
- Accumulation of radioactivity: Stomach (HT-29-transplanted tumor; 24 h after administration): 8.74 ± 0.46 % ID
- Accumulation of radioactivity: Tumor (HT-29) (HT-29-transplanted tumor; 24 h after administration): 8.71 ± 1.41 % ID/tissue weight (g)
- Tumor/blood (HT-29-transplanted tumor; 24 h after administration): 53.56 and 53.56 ± 5.53
- Tumor/muscle (HT-29-transplanted tumor; 24 h after administration): 6.59 and 6.59 ± 2.18
- Accumulation in the HT-29-transplanted tumor (HT-29-transplanted tumor; one hour after administration): 3.81 % ID/g
- CA-IX selective tumor accumulation [1]: confirmed
- Transplanted tumor/blood ratio, HT-29 vs MDA-MB-231 [1]: significant difference was similarly observed
- Transplanted tumor/muscle ratio, HT-29 vs MDA-MB-231 [1]: significant difference was similarly observed
- Amount accumulated in the HT-29 tumor vs the MDA-MB-231 tumor ([1]; Welch's t-test, 1% significance level): significant difference was observed
